Data as given in PMC11951083, “Highly Specific Miniaturized Fluorescent Monoacylglycerol Lipase Probes Enable Translational Research” (Journal of the American Chemical Society, 2025).

Legend:
[1] = molecular target: N neuronal alpha4beta2 (h) (Homo sapiens, UniProt P17787+P43681); assay: N neuronal alpha4beta2 (h) (agonist radioligand); settings: read-out: Inhibition N neuronal alpha4beta2 (h) (agonist radioligand)
beta1 (h) = beta1 (h) (Homo sapiens, UniProt P08588); assay: beta1 (h) (agonist radioligand); settings: read-out: Inhibition beta1 (h) (agonist radioligand)
H3 (h) = H3 (h) (Homo sapiens, UniProt Q9Y5N1); assay: H3 (h) (agonist radioligand); settings: read-out: Inhibition H3 (h) (agonist radioligand)
ZAP70 kinase (h) = molecular target: T1, ZAP70 kinase (h) (Homo sapiens, UniProt P43403); assay: ZAP70 kinase (h); settings: read-out: Inhibition ZAP70 kinase (h)
T1 sequence (P43403 1-619): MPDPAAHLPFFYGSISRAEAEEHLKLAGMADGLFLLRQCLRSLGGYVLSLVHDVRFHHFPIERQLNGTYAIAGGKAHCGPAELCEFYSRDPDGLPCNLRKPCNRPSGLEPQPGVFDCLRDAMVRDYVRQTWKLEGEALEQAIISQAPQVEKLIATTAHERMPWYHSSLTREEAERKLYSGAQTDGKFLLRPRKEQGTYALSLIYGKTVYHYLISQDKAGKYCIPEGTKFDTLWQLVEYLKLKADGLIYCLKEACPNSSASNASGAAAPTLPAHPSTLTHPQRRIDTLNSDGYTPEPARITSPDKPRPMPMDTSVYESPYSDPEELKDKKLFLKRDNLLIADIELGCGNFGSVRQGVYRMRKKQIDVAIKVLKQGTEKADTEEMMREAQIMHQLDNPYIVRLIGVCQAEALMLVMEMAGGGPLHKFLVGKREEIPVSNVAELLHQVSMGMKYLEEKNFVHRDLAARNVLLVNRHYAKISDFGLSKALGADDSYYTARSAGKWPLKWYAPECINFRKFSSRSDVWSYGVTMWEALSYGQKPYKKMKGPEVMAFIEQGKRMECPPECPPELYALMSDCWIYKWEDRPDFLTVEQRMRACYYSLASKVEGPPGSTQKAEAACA

beta2 (h) = beta2 (h) (Homo sapiens, UniProt P07550); assay: beta2 (h) (antagonist radioligand); settings: read-out: Inhibition beta2 (h) (antagonist radioligand)
H2 (h) = H2 (h) (Homo sapiens, UniProt P25021); assay: H2 (h) (antagonist radioligand); settings: read-out: Inhibition H2 (h) (antagonist radioligand)
CB1 (h) = CB1 (h) (Homo sapiens, UniProt P21554); assay: CB1 (h) (agonist radioligand); settings: read-out: Inhibition CB1 (h) (agonist radioligand)
5-HT1A (h) = molecular target: T2, 5-HT1A (h) (Homo sapiens, UniProt P08908); assay: 5-HT1A (h) (agonist radioligand); settings: read-out: Inhibition 5-HT1A (h) (agonist radioligand)
T2 sequence (P08908 1-422): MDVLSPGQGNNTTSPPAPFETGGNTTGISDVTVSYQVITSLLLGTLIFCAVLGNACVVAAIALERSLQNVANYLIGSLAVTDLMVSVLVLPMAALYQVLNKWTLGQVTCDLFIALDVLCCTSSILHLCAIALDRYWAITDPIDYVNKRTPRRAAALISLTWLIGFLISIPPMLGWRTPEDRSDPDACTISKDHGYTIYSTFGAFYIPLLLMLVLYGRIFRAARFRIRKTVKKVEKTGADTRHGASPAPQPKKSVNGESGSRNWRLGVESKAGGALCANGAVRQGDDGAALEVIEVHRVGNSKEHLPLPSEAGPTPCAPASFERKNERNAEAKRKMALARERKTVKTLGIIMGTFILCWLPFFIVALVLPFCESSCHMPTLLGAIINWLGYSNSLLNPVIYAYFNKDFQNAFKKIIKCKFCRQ

AT1 (h) = molecular target: T3, AT1 (h) (Homo sapiens, UniProt P30556); assay: AT1 (h) (antagonist radioligand); settings: read-out: Inhibition AT1 (h) (antagonist radioligand)
T3 sequence (P30556 1-359): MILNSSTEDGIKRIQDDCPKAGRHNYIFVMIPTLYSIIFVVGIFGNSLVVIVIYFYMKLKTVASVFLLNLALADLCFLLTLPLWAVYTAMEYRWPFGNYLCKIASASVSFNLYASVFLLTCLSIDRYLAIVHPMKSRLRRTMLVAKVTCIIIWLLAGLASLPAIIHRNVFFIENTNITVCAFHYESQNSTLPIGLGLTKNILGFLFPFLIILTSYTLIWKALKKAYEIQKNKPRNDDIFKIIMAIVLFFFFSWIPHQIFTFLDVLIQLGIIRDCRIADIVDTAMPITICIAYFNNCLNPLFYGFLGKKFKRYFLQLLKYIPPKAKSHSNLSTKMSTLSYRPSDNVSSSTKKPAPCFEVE

5-HT2A (h) = 5-HT2A (h) (Homo sapiens, UniProt P28223); assay: 5-HT2A (h) (agonist radioligand); settings: read-out: Inhibition 5-HT2A (h) (agonist radioligand)
ACE (h) = ACE (h) (Homo sapiens, UniProt P12821); assay: ACE (h); settings: read-out: Inhibition ACE (h)
ACE (h), sequence (P12821 30-1306): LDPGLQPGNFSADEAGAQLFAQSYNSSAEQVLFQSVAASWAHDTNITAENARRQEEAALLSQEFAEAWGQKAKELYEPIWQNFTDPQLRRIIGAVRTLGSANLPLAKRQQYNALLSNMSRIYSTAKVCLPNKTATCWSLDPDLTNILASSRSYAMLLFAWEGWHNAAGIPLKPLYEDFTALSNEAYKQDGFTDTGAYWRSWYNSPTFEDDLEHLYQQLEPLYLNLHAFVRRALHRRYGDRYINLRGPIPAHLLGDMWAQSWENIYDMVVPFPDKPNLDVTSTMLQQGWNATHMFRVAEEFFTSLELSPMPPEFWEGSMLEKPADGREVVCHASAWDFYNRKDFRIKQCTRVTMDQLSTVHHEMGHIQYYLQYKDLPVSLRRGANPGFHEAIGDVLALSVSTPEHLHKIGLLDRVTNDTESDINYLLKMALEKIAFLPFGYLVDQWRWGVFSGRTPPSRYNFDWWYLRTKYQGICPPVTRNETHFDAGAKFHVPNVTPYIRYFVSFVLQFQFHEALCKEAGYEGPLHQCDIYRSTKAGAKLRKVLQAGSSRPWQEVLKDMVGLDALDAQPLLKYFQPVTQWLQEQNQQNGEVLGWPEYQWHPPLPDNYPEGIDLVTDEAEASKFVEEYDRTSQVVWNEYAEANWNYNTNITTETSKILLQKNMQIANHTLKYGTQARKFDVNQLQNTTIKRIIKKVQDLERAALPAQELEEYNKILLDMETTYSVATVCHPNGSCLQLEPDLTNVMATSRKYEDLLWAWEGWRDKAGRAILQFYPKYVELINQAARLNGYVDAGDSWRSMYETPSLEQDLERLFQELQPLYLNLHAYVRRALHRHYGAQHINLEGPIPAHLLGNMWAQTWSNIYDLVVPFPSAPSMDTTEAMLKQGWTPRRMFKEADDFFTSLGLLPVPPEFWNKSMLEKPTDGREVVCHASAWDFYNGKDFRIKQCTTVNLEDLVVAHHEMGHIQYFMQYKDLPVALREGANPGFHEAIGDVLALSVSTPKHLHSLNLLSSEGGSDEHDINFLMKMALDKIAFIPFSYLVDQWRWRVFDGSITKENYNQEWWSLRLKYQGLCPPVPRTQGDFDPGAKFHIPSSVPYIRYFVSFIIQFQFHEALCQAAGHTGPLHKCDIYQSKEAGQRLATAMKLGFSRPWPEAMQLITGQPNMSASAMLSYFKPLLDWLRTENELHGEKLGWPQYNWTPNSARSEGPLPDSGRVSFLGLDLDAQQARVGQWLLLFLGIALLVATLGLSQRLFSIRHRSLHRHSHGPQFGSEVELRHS

H2 (h), sequence (P25021 whole entry): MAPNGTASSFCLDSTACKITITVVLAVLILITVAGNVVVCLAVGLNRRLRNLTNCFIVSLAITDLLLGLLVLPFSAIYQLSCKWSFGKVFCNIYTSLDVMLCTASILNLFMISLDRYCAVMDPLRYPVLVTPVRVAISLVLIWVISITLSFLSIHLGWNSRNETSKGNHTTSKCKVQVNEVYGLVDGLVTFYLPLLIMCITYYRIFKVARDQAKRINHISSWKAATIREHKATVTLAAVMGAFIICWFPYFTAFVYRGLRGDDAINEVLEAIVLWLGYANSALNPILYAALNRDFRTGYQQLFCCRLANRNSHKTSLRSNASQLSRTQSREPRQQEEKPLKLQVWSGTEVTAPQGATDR
beta1 (h), sequence (P08588 whole entry): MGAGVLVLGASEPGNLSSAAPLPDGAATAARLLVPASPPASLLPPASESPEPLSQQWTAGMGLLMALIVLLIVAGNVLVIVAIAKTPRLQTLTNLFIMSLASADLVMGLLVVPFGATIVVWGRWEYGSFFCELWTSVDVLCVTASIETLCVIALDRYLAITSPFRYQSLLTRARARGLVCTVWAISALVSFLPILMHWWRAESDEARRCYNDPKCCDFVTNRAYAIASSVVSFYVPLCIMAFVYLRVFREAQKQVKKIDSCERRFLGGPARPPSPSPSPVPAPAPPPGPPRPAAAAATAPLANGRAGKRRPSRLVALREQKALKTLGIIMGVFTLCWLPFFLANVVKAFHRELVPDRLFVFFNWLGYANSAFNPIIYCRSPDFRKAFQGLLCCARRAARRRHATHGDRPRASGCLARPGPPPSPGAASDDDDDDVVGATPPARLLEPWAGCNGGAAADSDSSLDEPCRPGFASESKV
CB1 (h), sequence (P21554 whole entry): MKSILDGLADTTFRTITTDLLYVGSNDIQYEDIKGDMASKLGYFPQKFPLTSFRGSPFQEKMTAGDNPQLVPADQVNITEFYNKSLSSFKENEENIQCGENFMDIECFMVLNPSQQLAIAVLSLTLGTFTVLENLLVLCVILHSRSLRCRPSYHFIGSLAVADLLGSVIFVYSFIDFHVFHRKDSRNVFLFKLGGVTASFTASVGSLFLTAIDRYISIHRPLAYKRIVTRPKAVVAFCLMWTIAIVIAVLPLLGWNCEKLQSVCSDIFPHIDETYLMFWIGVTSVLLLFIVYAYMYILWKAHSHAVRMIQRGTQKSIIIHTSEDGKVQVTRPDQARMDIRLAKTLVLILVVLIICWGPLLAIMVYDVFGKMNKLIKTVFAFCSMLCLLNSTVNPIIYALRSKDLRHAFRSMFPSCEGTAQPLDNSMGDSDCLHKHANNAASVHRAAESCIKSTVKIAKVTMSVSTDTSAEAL
beta2 (h), sequence (P07550 whole entry): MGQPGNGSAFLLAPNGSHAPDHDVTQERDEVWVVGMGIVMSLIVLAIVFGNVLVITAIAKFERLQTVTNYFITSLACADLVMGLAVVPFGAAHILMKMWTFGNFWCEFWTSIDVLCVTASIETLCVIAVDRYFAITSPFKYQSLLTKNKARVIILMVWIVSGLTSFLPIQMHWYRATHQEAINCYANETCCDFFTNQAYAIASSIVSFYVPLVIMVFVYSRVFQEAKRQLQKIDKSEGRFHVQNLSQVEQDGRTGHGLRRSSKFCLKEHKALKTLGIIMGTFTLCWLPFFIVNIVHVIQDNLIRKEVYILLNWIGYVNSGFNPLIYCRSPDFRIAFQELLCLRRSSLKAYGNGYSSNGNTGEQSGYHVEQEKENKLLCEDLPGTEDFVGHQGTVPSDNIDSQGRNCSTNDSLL
H3 (h), sequence (Q9Y5N1 whole entry): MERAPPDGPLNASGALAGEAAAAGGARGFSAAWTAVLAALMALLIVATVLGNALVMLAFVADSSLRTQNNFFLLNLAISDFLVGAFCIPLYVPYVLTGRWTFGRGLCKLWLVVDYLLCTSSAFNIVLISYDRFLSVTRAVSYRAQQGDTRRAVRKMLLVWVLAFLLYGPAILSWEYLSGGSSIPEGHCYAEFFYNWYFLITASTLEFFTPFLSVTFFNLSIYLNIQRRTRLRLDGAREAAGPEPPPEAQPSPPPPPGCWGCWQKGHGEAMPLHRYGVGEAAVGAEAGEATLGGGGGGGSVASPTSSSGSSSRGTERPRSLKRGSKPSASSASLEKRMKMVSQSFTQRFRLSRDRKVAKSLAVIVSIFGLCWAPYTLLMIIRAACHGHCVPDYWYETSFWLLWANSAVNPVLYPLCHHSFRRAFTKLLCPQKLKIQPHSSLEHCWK
N neuronal alpha4beta2 (h), sequence (P43681 29-627 limits assumed): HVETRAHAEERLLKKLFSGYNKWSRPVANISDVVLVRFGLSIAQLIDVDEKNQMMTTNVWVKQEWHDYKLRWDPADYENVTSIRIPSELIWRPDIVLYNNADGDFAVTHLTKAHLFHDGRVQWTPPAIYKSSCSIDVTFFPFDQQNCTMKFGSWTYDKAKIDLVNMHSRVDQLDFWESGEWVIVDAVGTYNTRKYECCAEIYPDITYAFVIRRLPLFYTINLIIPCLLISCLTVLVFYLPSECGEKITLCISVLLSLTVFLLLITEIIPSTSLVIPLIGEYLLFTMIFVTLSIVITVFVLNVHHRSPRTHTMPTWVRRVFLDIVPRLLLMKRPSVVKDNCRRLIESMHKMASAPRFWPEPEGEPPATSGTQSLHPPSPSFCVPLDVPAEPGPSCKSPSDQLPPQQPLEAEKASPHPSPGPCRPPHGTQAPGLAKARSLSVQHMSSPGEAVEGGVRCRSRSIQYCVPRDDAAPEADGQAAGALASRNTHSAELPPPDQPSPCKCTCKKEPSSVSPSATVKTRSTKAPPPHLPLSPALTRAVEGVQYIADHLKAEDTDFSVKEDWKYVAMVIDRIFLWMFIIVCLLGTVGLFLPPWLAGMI
N neuronal alpha4beta2 (h), sequence (P17787 26-502): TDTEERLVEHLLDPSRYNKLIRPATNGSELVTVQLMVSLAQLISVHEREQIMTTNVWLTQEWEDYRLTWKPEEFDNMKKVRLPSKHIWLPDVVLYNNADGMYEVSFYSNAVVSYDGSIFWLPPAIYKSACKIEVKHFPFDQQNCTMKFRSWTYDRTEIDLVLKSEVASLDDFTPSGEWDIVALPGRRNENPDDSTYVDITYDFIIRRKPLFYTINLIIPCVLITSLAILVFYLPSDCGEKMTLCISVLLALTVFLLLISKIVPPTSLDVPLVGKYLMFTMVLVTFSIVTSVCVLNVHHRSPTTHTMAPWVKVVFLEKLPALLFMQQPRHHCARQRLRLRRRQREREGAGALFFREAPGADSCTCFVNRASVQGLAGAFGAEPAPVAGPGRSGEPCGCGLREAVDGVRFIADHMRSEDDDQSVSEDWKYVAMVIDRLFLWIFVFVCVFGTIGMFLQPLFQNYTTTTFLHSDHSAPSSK
5-HT2A (h), sequence (P28223 whole entry): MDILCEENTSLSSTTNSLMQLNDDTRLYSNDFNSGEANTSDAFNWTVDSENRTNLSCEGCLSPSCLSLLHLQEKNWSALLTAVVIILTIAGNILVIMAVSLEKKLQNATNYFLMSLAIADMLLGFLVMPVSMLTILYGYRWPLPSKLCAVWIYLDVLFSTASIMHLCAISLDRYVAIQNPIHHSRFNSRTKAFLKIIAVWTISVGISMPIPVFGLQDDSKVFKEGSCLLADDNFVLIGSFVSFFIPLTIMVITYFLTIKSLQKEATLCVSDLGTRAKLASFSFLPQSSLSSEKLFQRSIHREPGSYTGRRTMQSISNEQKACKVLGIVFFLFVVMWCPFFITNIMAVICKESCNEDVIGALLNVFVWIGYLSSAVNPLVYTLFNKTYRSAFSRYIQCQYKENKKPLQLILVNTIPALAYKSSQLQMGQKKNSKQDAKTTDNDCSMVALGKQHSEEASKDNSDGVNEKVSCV

| SMILES | inhibition at 10 µM [1] [%] | inhibition at 10 µM (beta1 (h)) [%] | inhibition at 10 µM (H3 (h)) [%] | inhibition at 10 µM (ZAP70 kinase (h)) [%] | inhibition at 10 µM (beta2 (h)) [%] | inhibition at 10 µM (H2 (h)) [%] | inhibition at 10 µM (CB1 (h)) [%] | inhibition at 10 µM (5-HT1A (h)) [%] | inhibition at 10 µM (AT1 (h)) [%] | inhibition at 10 µM (5-HT2A (h)) [%] | inhibition at 10 µM (ACE (h)) [%] |
| --- | --- | --- | --- | --- | --- | --- | --- | --- | --- | --- | --- |
| O=C(O[C@H](CO)C(F)(F)F)N1CC2(CC(CC3=C4C=CC=[N+]4[B-](F)(F)n4cccc43)C2)C1 [Compound 1] | -18.3 | -3.3 | 5.2 | 4.3 | -3.1 | -10.7 | 4.4 | 0 | -4.3 | -13.2 | -10.4 |
| O=C(OC(C(F)(F)F)C(F)(F)F)N1CC2(CC(CC3=C4C=CC=[N+]4[B-](F)(F)n4cccc43)C2)C1 [Compound 2] | -1.7 | -1.7 | -7.2 | -2 | -0.6 | -18.7 | -16.1 | -29.4 | -1.2 | -36.2 | -15.8 |
| O=C(OC(C(F)(F)F)C(F)(F)F)N1CC2(CC(CC3=C4C=CC(c5ccc[nH]5)=[N+]4[B-](F)(F)n4cccc43)C2)C1 [Compound 2a] | 4.2 | -3.3 | 7.3 | 2.3 | 1.8 | -48.6 | 6.3 | -5.5 | 2.5 | -6.8 | -4.4 |
| O=C1CO[C@H]2CCN(C(=O)N3CC4(CC(CC5=C6C=CC(c7ccc[nH]7)=[N+]6[B-](F)(F)n6cccc65)C4)C3)C[C@H]2N1 [Compound 4a] | -0.6 | -1.2 | 1.8 | 5.4 | -6.2 | -34.8 | -2.7 | -2.4 | -12.5 | 18.5 | -21.2 |
| O=C(N1CC2(CC(CC3=C4C=CC=[N+]4[B-](F)(F)n4cccc43)C2)C1)N1CC2(CC(n3cnc(C4CC4)n3)C2)C1 [Compound 5] | -16.6 | 0.6 | -3.7 | 6.9 | 5.4 | -1.9 | 9.9 | 2.4 | 11.1 | -9.2 | -21.1 |
